Laboratory results reported in publication PMC11813147, “Bioactivity assessment of peptides derived from salted jellyfish (Rhopilema hispidum) byproducts” (PLOS ONE, 2025).

Experiments:
[1] = test system: angiotensin I-converting enzyme (ACE); test: ACE inhibitory activity assay (fluorometric ACE activity assay kit); format: biochemical; settings: peptide sample 1 mg/mL
Method: The ACE inhibitory activity assay was performed following the method outlined by Batista et al., with slight modifications, using a fluorometric angiotensin I-converting enzyme (ACE) activity assay kit from Sigma-Aldrich (catalog number CS0002), Burlington, Massachusetts, USA. In summary, 10 µ L of the sample (1 mg/mL for the peptide sample and 50 µg/mL for ramipril) was combined with 40 µ L of the ACE solution (CS0002B) in 96-well flat-bottom black plates at 37 °C for 5 min. Next, 50 µ L of the substrate solution (CS0002C) was added to this mixture to initiate the reaction. A fluorescence multiwell plate reader was used to monitor the changes in fluorescence. The sample’s fluorescence was measured every min for 5 min, with excitation at 320 nm and emission at 405 nm. All reagents, except the test sample, were prepared to assess the ACE positive control activity. A kit standard solution (CS0002D) was diluted with assay buffer (CS0002A) to create different concentrations (nmol) of the standard solution, allowing generation of a standard curve. The slope of the standard curve (RFU/nmol) and the slope of the sample kinetic curve were utilized to calculate the ACE activity using the following equation (3):
ACEactivitynmol/min=Slopesample/Slopestandard×DF (3)
Where Slopesample refers to the slope of the blank-subtracted sample curve (RFU/min), Slopestandard refers to the slope of the blank-subtracted standard curve (RFU/nmol), DF is the dilution factor, and 0.1 nmol/min is equivalent to […].
In this study, the results of ACE inhibitory activity are expressed as percentages. The ACE inhibitory activity (%) was calculated using the following equation (4):
ACEinhibitoryactivity%=ACEPC–ACES/ACEPC×100 (4)
Where ACEPC represents the ACE activity of the positive control, and ACES denotes the ACE activity of the sample.

[2] = Ferric reducing antioxidant power (FRAP) assay; format: biochemical
Method: The FRAP assay was conducted following the method outlined by Rumpf et al.. The FRAP solution was prepared by mixing 300 mM acetate buffer (pH 3.6), 10 mM TPTZ (2,4,6-Tris(2-pyridyl)-s-triazine) in 40 mM hydrochloric acid, and 20 mM FeCl3 in a ratio of 10:1:1. In a 96-well plate, 10 μL of the sample was combined with 190 μL of the FRAP solution and incubated in the dark for 15 min. The absorbance of the mixture was then measured at 593 nm. FeSO4 was used to create the standard curve, and the results were expressed as millimoles of FeSO4 equivalent per milligram of protein (mM FeSO4/mg protein).

[3] = DPPH radical scavenging assay; format: biochemical; settings: for DPPH, mean±SD / DPPH: supplement tables; for DPPH, mean±SD / DPPH radical scavenging activity (TEAC): n = 3, mean ± SD; for DPPH radical scavenging activity (TEAC): 10 µL sample + 190 µL 0.1 mM DPPH in 70% ethanol, 30 min dark, room temperature, 517 nm, Trolox standard curve
Method: The DPPH radical scavenging activity of the sample was assessed following a modified protocol based on a previous study. In each well of a 96-well plate, 10 μL of the sample was added, followed by 190 μL of 0.1 mM DPPH solution in 70% ethanol. The mixture was then incubated at room temperature in the dark for 30 min. After the incubation period, the absorbance of the mixture was measured at 517 nm. The DPPH radical scavenging activity was calculated using the following equation (1):
DPPHradicalscavengingactivity%=Acontrol–Asample/Acontrol×100 (1)
In this equation, Acontrol represents the absorbance of a control solution containing all reagents except for the test samples, while Asample is the absorbance of the mixture (the sample combined with 0.1 mM DPPH). To determine the Trolox equivalent antioxidant capacity (TEAC), a Trolox standard curve was utilized. The results were expressed as millimoles of Trolox equivalents per milligram of protein (mM TE/mg protein).

[4] = test system: RAW 264.7; test: Anti-inflammation assay: released NO in LPS-stimulated RAW 264.7 (Griess); format: cell-based, Murine; settings: then 1 µg/mL LPS 24 h; for Released NO: peptide 10 µg/mL 1 h; for Released NO, mean±SD: peptide 10 µg/mL pre-treatment 1 h, Griess reagent, n = 3
Method: Murine macrophage cells (RAW 264.7; ATCC TIB-71™) were cultured in Dulbecco’s Modified Eagle’s Medium (DMEM) that was supplemented with 10% heat-inactivated fetal bovine serum (FBS) and 1% antibiotic solution. Colorectal adenocarcinoma cells (CaCo-2; ATCC HTB 37™) were cultured in Eagle’s Minimum Essential Medium (EMEM), also supplemented with 10% heat-inactivated FBS and 1% antibiotic solution. Both cell types were maintained in a humidified incubator with 5% CO2. The cell culture medium was refreshed every three days.
The anti-inflammation assay was conducted following the method described by Barzkar et al. with slight modifications. RAW 264.7 (1 x 10^5 cells) was seeded into a 96-well plate to allow for cell attachment. After 24 h, the cells were pre-treated with fresh medium containing peptide samples at a concentration of 10 µg/mL for 1 h. Subsequently, the treated cells were stimulated with 1 µg/mL lipopolysaccharide (LPS) for an additional 24 h. Unstimulated cells were included as a negative control. At the end of the treatment period, the conditioned medium was collected for the determination of released nitric oxide (NO). Griess’s reagent (Promega) was utilized to measure the NO concentration, following the manufacturer’s instructions. A NO calibration curve was generated to quantify the released NO in the conditioned medium.

[5] = ABTS radical scavenging assay; format: biochemical; settings: supplement tables; for ABTS, mean±SD: n = 3
Method: The ABTS radical scavenging activity of the sample was measured using a method adapted from Mirzaei et al.. The ABTS radical was generated by mixing 7 mM ABTS with 2.45 mM potassium persulfate in a 1:1 ratio and incubating the mixture in the dark at room temperature for 12 to 16 h. The resulting solution was then diluted to achieve an absorbance of 0.74 ± 0.03 at 734 nm, using deionized water for adjustments. Next, 10 μL of the sample was added to 190 μL of the ABTS solution. The mixture was incubated in the dark for 7 min, after which the absorbance was measured at 734 nm. The ABTS radical scavenging activity (%) was calculated using the following equation (2):
ABTSradicalscavengingactivity%=Acontrol–Asample/Acontrol×100 (2)
In this equation, Acontrol refers to the absorbance of the control solution (which contains all reagents except the test samples), while Asample refers to the absorbance of the mixture containing the sample and the ABTS solution. To determine the Trolox equivalent antioxidant capacity (TEAC), a Trolox standard curve was used, and the results were expressed as millimoles of Trolox equivalents per milligram of protein (mM TE/mg protein).

[6] = 37 °C, fluorescence ex 320/em 405 nm, mean ± SD, n = 3, SD
[7] = 10 µL sample + 190 µL FRAP solution, 15 min dark, 593 nm, FeSO4 standard curve, mean ± SD, n = 3, SD

Sequence	ACE inhibitory activity, mean±SD [1, 6]	ACE inhibitory activity ([1]; replicate 1) [%]	ACE inhibitory activity ([1]; replicate 2) [%]	ACE inhibitory activity ([1]; replicate 3) [%]	FRAP [2, 7]	FRAP ([2]; supplement tables, replicate 1) [mM FeSO4/mg protein]	FRAP ([2]; supplement tables, replicate 2) [mM FeSO4/mg protein]	FRAP ([2]; supplement tables, replicate 3) [mM FeSO4/mg protein]	DPPH, mean±SD [3]	DPPH ([3]; replicate 1) [TE/mg protein]	DPPH ([3]; replicate 2) [TE/mg protein]	DPPH ([3]; replicate 3) [TE/mg protein]	Released NO ([4]; replicate 1) [µM]	Released NO ([4]; replicate 2) [µM]	Released NO ([4]; replicate 3) [µM]	Released NO, mean±SD ([4]; SD)	ABTS, mean±SD [5]	ABTS ([5]; replicate 1) [TE/mg protein]	ABTS ([5]; replicate 2) [TE/mg protein]	ABTS ([5]; replicate 3) [TE/mg protein]	other results
LGAEGRSP [P13, synthesized peptide identified from jellyfish fraction PUR20C]	20.51±1.81^G %	21.56	18.41	21.56	4.82±0.73^H mM FeSO4/mg protein	4.89	5.52	4.05	5.85±0.66^D TE/mg protein	5.23	5.76	6.56	35.17	35.51	37.58	36.09 µM	6.51±0.87^H TE/mg protein	5.91	6.11	7.51	–
LNIPKPKLNLL [P11, synthesized peptide identified from jellyfish fraction PUR20C]	22.90±3.15^G %	19.27	25.00	24.42	6.36±0.63^G mM FeSO4/mg protein	6.36	7.00	5.73	3.81±0.40^E TE/mg protein	3.90	3.37	4.17	36.55	35.86	37.58	36.66 ± 0.86 µM	3.91 TE/mg protein	4.11	3.71	3.91	–
MVVACVLPEA [P16, synthesized peptide identified from jellyfish fraction PUR20C]	–	92.27	89.69	93.12	6.92 mM FeSO4/mg protein	8.05	7.63	5.10	56.07±0.30^A TE/mg protein	55.89	55.89	56.42	35.17	33.44	35.17	34.59 ± 0.99 µM	121.31±0.87^D TE/mg protein	121.71	120.30	121.91	ACE inhibitory activity, mean±SD ([1]; 37 °C, fluorescence ex 320/em 405 nm, mean ± SD, n = 3): 91.69%; DPPH radical scavenging activity (TEAC) [3]: strongest DPPH radical scavenging activity; DPPH radical scavenging activity (TEAC) ([3]; listed as MVVACVLPEA): 56.07 mM TE/mg protein; Released NO, mean±SD [4]: 34.59 µM
NQKAMQELNE [P1, synthesized peptide identified from jellyfish fraction PUR20C]	–	6.67	6.67	6.10	8.61±0.12^E mM FeSO4/mg protein	8.47	8.68	8.68	1.16±0.15^H TE/mg protein	0.99	1.25	1.25	37.58	38.27	37.93	37.93 µM	4.44 TE/mg protein	4.91	4.11	4.31	inhibition [1, 6]: 6.48 ± 0.33%
PFTMYFLL [P14, synthesized peptide identified from jellyfish fraction PUR20C]	81.87±0.33^B %	81.67	81.67	82.25	9.24±1.05 mM FeSO4/mg protein	10.36	9.10	8.26	6.29±0.53^D TE/mg protein	6.29	5.76	6.82	32.06	31.03	34.48	32.52±1.76^F µM	119.57±1.33^E TE/mg protein	118.70	118.90	121.11	–
